This note sets out measurements from PubChem BioAssay (NCI).

A word on the GI50: it is the concentration at which growth is held to half of that of the control. As usually defined, the TGI is the concentration giving total growth inhibition. Low values mean greater sensitivity of the cells, high ones lower sensitivity of the cells.

Test systems include HCC-2998 colon; NCI-H226 lung; SR leukemia; CAKI-1 renal; SF-539 CNS; SF-268 CNS; OVCAR-5 ovarian; NCI-H522 lung; HL-60(TB) leukemia; SW-620 colon.
Assay in all cases: DTP human tumour cell line panel, 48 h

The structures appear in SMILES notation. Several values for one entry are separate records, joined by “and”; a condition that tells them apart may be missing. Identical values can stand only once.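 48-hour exposure; five concentrations; linearly interpolated endpoints. The concentration for 50% growth inhibition is given as GI50. TGI is the concentration that stops growth completely.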 Where only a bound is given, the exact number is not on record here.

For `COc1ccc(OC)c(Cn2cc3c(c2-c2ccccc2)CCc2cnoc2-3)c1`, the GI50 with HCC-2998 colon is 8.83 µM; in the assay with NCI-H226 lung, 40.8 µM; in the assay with SR leukemia, 2.62 µM; in the assay on CAKI-1 renal it was 4.35 µM; in the assay with SF-539 CNS, 4.24 µM; with SF-268 CNS it was 6.24 µM. The GI50 in the assay on OVCAR-5 ovarian was 10.8 µM; with NCI-H522 lung, 1.74 µM; with HL-60(TB) leukemia it was 2.03 µM; in the assay with SW-620 colon it was 3.69 µM. For the same molecule, the TGI in the assay with HCC-2998 colon was over 100 µM; in the assay on NCI-H226 lung, over 100 µM; in the assay with SR leukemia it was over 100 µM; in the assay with CAKI-1 renal, over 100 µM; with SF-539 CNS, 56.9 µM; in the assay with SF-268 CNS it was over 100 µM. Also, the concentration for total growth inhibition (TGI) is over 100 µM in the assay on OVCAR-5 ovarian, 6.25 µM in the assay on NCI-H522 lung, 6.52 µM with HL-60(TB) leukemia and over 100 µM in the assay on SW-620 colon.
On to `O=C(N[C@@H](C[Se][Se]C[C@H](NC(=O)c1ccc(Br)cc1F)C(=O)O)C(=O)O)c1ccc(Br)cc1F`, for which the GI50 in the assay with HCC-2998 colon was over 100 µM; in the assay on NCI-H226 lung, over 100 µM; with SR leukemia, 95.4 µM; in the assay on CAKI-1 renal it was over 100 µM; with SF-539 CNS it was over 100 µM; in the assay with SF-268 CNS, over 100 µM. The GI50 in the assay with OVCAR-5 ovarian, with NCI-H522 lung, with HL-60(TB) leukemia and in the assay on SW-620 colon was over 100 µM in each case. The total growth inhibition concentration (TGI) with HCC-2998 colon, in the assay on NCI-H226 lung, with SR leukemia, in the assay on CAKI-1 renal, in the assay on SF-539 CNS and in the assay with SF-268 CNS was over 100 µM each time. Also, the TGI with OVCAR-5 ovarian, in the assay with NCI-H522 lung, in the assay with HL-60(TB) leukemia and in the assay with SW-620 colon was over 100 µM each time.
Regarding `Cc1cc(N(CCC#N)CCC#N)ccc1/C=C(\NC(=O)/C=C/c1ccccc1)C(=O)NN`, the TGI with HCC-2998 colon is over 100 µM; in the assay with NCI-H226 lung it was over 90.2 µM; in the assay with SR leukemia it was over 100 µM; in the assay with CAKI-1 renal, over 100 µM; with SF-539 CNS it was over 100 µM; with SF-268 CNS, over 100 µM. The total growth inhibition concentration (TGI) with OVCAR-5 ovarian, with NCI-H522 lung, in the assay with HL-60(TB) leukemia and in the assay with SW-620 colon was over 100 µM throughout.
On to `O=S(=O)(CCCl)c1ccc(Cl)cc1`, for which the GI50 in the assay with HCC-2998 colon is 11.5 µM; in the assay with NCI-H226 lung, 16 µM; with SR leukemia, 3.41 µM; in the assay on CAKI-1 renal, 2.9 µM; with SF-539 CNS, 2.46 µM; in the assay with SF-268 CNS, 2.87 µM. Moreover, the GI50 was 3.56 µM with OVCAR-5 ovarian, 1.41 µM in the assay on NCI-H522 lung, 2.36 µM in the assay on HL-60(TB) leukemia and 2.43 µM in the assay with SW-620 colon. The concentration for total growth inhibition (TGI) in the assay on HCC-2998 colon was 25.6 µM; in the assay on NCI-H226 lung it was over 100 µM; in the assay with SR leukemia it was over 100 µM; in the assay with CAKI-1 renal it was 13.2 µM; with SF-539 CNS, 7.08 µM; in the assay on SF-268 CNS it was 10.8 µM. Also, the TGI is 14.2 µM with OVCAR-5 ovarian, 3.01 µM in the assay with NCI-H522 lung, 9.79 µM in the assay with HL-60(TB) leukemia and 11.6 µM with SW-620 colon.
As for `O=C(/C=C/c1ccccc1)c1ccc(NCc2nc3ccccc3[nH]2)cc1`, the concentration for total growth inhibition (TGI) in the assay with HCC-2998 colon was 4.2 µM; in the assay with NCI-H226 lung it was 16.8 µM; with SR leukemia, over 35.3 µM; in the assay on CAKI-1 renal it was 25.2 µM; in the assay on SF-539 CNS, 5.02 µM; in the assay with SF-268 CNS it was 20.9 µM. In addition, the total growth inhibition concentration (TGI) with OVCAR-5 ovarian was 23.2 µM; in the assay on NCI-H522 lung, 14.7 µM; in the assay with HL-60(TB) leukemia, over 22.3 µM; with SW-620 colon it was 8.43 µM.
On to `CCCCN(CC)CC(C(C)=O)c1c(O)c2ccccc2oc1=O` (stereo unspecified), for which the TGI with HCC-2998 colon, in the assay on NCI-H226 lung, in the assay on SR leukemia, in the assay on CAKI-1 renal, in the assay on SF-539 CNS and in the assay with SF-268 CNS was over 100 µM throughout. Also, the total growth inhibition concentration (TGI) in the assay with OVCAR-5 ovarian, in the assay on NCI-H522 lung, in the assay on HL-60(TB) leukemia and in the assay on SW-620 colon was over 100 µM in each case.
In the case of `O=C(Nc1ccc(Cl)c(Cl)c1)NS(=O)(=O)c1cnccc1Oc1ccc(F)cc1`, the GI50 in the assay on HCC-2998 colon was 4.43 µM; with NCI-H226 lung, 9.77 µM; in the assay with SR leukemia, 2.55 µM; in the assay on CAKI-1 renal, 2.5 µM; with SF-539 CNS, 3.64 µM; in the assay on SF-268 CNS, 4.48 µM. Moreover, the GI50 in the assay with OVCAR-5 ovarian was 6.28 µM; in the assay on NCI-H522 lung, 2.8 µM; in the assay on HL-60(TB) leukemia, 2.12 µM; in the assay with SW-620 colon it was 3.01 µM. Besides, the TGI with HCC-2998 colon was 38.1 µM; in the assay on NCI-H226 lung, over 100 µM; in the assay with SR leukemia it was 10.2 µM; in the assay on CAKI-1 renal, 8.23 µM; with SF-539 CNS, 24.6 µM; with SF-268 CNS it was over 100 µM. For the same molecule, the concentration for total growth inhibition (TGI) in the assay with OVCAR-5 ovarian was 95.2 µM; with NCI-H522 lung it was 10.4 µM; in the assay on HL-60(TB) leukemia, 7.19 µM; in the assay with SW-620 colon, over 100 µM.
Turning to `CC(C)(C)OC(=O)NCCCCCCCn1c2c(c3ccccc3c1=O)C(=O)c1ccccc1-2`, the GI50 with HCC-2998 colon is 40.6 µM; with NCI-H226 lung, 31.3 µM; with SR leukemia, 4.95 µM; in the assay on CAKI-1 renal it was 32.2 µM; in the assay on SF-539 CNS, 20.7 µM; in the assay on SF-268 CNS, 25.4 µM. For the same molecule, the GI50 was over 100 µM with OVCAR-5 ovarian, 26.4 µM in the assay with NCI-H522 lung, 16.4 µM with HL-60(TB) leukemia and 44 µM in the assay with SW-620 colon. Moreover, the total growth inhibition concentration (TGI) is over 100 µM with HCC-2998 colon; 77.8 µM in the assay on NCI-H226 lung; over 100 µM in the assay on SR leukemia; 73 µM with CAKI-1 renal; 38.8 µM in the assay on SF-539 CNS; 93.6 µM in the assay with SF-268 CNS. For the same molecule, the total growth inhibition concentration (TGI) with OVCAR-5 ovarian is over 100 µM; with NCI-H522 lung, over 100 µM; in the assay with HL-60(TB) leukemia, 40.5 µM; in the assay with SW-620 colon, over 100 µM.
As for `O=C(O)[C@@H](Cc1ccc2ccccc2c1)NC(=O)n1c2ccccc2c2ccccc21`, the GI50 in the assay on HCC-2998 colon is 3.91 µM; in the assay with NCI-H226 lung it was 2.1 µM; in the assay with SR leukemia, 4.12 µM; in the assay on CAKI-1 renal, 3.54 µM; in the assay on SF-539 CNS, 1.99 µM; in the assay on SF-268 CNS, 3.77 µM. Besides, the GI50 in the assay on OVCAR-5 ovarian was 5.05 µM; in the assay on NCI-H522 lung, 0.356 µM; in the assay on HL-60(TB) leukemia it was 3.3 µM; in the assay on SW-620 colon it was 4.04 µM. In addition, the concentration for total growth inhibition (TGI) in the assay with HCC-2998 colon was 19.1 µM; with NCI-H226 lung, 9.32 µM; in the assay with SR leukemia, over 100 µM; in the assay with CAKI-1 renal, 46.2 µM; in the assay on SF-539 CNS it was 6.61 µM; with SF-268 CNS, 36.2 µM. Moreover, the concentration for total growth inhibition (TGI) with OVCAR-5 ovarian is over 100 µM; in the assay on NCI-H522 lung, 2.21 µM; in the assay with HL-60(TB) leukemia, 18.3 µM; in the assay with SW-620 colon, over 100 µM.
As for `COc1ccc2c(c1)/C(=C/c1cc(OC)c(OC)c(OC)c1)C(=O)N2`, the GI50 was 0.586 µM in the assay on HCC-2998 colon; over 30.9 µM with NCI-H226 lung; 0.118 µM in the assay on CAKI-1 renal; 0.74 µM with SF-539 CNS; 0.419 µM in the assay on SF-268 CNS; 1.9 µM with OVCAR-5 ovarian. The concentration for 50% growth inhibition (GI50) is 0.25 µM in the assay on NCI-H522 lung, 0.0908 µM with HL-60(TB) leukemia and 0.175 µM in the assay with SW-620 colon. Further, the total growth inhibition concentration (TGI) in the assay on HCC-2998 colon is 16 µM; with NCI-H226 lung, over 100 µM; in the assay with SR leukemia, 0.59 µM; with SF-539 CNS, 19.5 µM; in the assay on SF-268 CNS it was over 100 µM; with OVCAR-5 ovarian it was over 100 µM. For the same molecule, the total growth inhibition concentration (TGI) with HL-60(TB) leukemia and in the assay with SW-620 colon was over 100 µM each time.
Take `O=C(O)[C@H](c1ccccc1)[C@@H](C(=O)O)c1ccccc1`: the TGI with HCC-2998 colon, in the assay on NCI-H226 lung, in the assay with SR leukemia, with CAKI-1 renal, with SF-539 CNS and in the assay with SF-268 CNS was over 100 µM throughout. Further, the TGI in the assay with OVCAR-5 ovarian, in the assay on NCI-H522 lung, with HL-60(TB) leukemia and in the assay on SW-620 colon was over 100 µM throughout.
Regarding `CCC1=CC2CN(C1)Cc1c([nH]c3ccccc13)[C@@](C(=O)OC)(c1cc3c(cc1OC)N(C)[C@H]1[C@@](O)(C(=O)OC)[C@H](OC(C)=O)[C@]4(CC)C=CCN5CC[C@]31[C@@H]54)C2` (stereo partly specified), the GI50 with HCC-2998 colon is 0.0108 µM and 0.0162 µM; in the assay with NCI-H226 lung it was 19.8 µM; with SR leukemia, under 0.005 µM; in the assay with CAKI-1 renal, 7.86 µM and 6.85 µM; in the assay with SF-539 CNS, 0.014 µM; in the assay on SF-268 CNS, 0.122 µM and 0.145 µM. Further, the GI50 is 0.0325 µM and 0.0785 µM with OVCAR-5 ovarian; under 0.005 µM in the assay with NCI-H522 lung; under 0.005 µM in the assay with HL-60(TB) leukemia; under 0.005 µM in the assay with SW-620 colon. Also, the TGI is 50 µM with NCI-H226 lung; 9.27 µM in the assay on SR leukemia; 50 µM and > 100 µM in the assay with CAKI-1 renal; 8.44 µM in the assay on SF-539 CNS; 50 µM and 91 µM in the assay with SF-268 CNS; 50 µM and > 100 µM in the assay on OVCAR-5 ovarian. Besides, the total growth inhibition concentration (TGI) in the assay on NCI-H522 lung is 1.3 µM; in the assay on HL-60(TB) leukemia, 0.00984 µM and 0.0285 µM; with SW-620 colon it was 50 µM and > 100 µM.
